Positions of bridges follow the written chain, without caps; N, C: chain ends. Primed or numbered codes have the meaning given here. No end group written: not given here. *: point of attachment. PEG4′ = PEG4 spacer between biotin and the N-terminus; Biotin = O=C1N[C@H]2[C@H](CS[C@H]2CCCCC(=O)*)N1
Experiments:
IgY = assay: Peptide-conjugated affinity column HPLC, IgY; type: binding, chicken; details: 0.1 M glycine‐HCl, pH 2.5 vs pH 3.0; IgY and IgY‐Fc
human IgG [1] = assay: Peptide-conjugated affinity column HPLC, human IgG; type: binding; details: biotinylated peptide on HiTrap Streptavidin HP 1 mL, PBS wash
human IgG [2] = assay: Immunoprecipitation with peptide-immobilized SA beads, human IgG; type: binding; details: biotinylated peptide on SA beads, shaken 1 h; SDS‐PAGE
IgY‐Fc = assay: Peptide-conjugated affinity column HPLC, IgY‐Fc; type: binding, chicken; details: for elution of IgY‐Fc from peptide column: 0.1 M glycine‐HCl, pH 2.5 vs pH 3.0, IgY and IgY‐Fc; for absorption of IgY‐Fc on peptide column: biotinylated peptide on HiTrap Streptavidin HP 1 mL, PBS wash
[3] = molecular target: Chicken egg yolk immunoglobulin (IgY) (chicken); assay: SPR

Molecule | elution of IgY from peptide column (IgY) | human IgG on peptide column (human IgG [1]) | recovery of hIgG by peptide beads (human IgG [2]) | elution of IgY‐Fc from peptide column (IgY‐Fc) | absorption of IgY‐Fc on peptide column (IgY‐Fc) | Kd [3]
GVKCTWSSIVDWVCVDM (disulfide 4-14 (inferred)) [Y4‐4] | eluted from the column at pH 2.5 and 3.0, although the elution peaks at pH 2.5 were sharper than those at pH 3.0 | human IgG passed through both peptide‐immobilized columns | hIgG was not | eluted from the column at pH 2.5 and 3.0, although the elution peaks at pH 2.5 were sharper than those at pH 3.0 | IgY and IgY‐Fc proteins were absorbed onto both columns | –
RSVCVWTAVTGWDCRND (disulfide 4-14 (inferred)) [Y5‐55] | eluted from the column at pH 2.5 and 3.0, although the elution peaks at pH 2.5 were sharper than those at pH 3.0 | human IgG passed through both peptide‐immobilized columns | hIgG was not | eluted from the column at pH 2.5 and 3.0, although the elution peaks at pH 2.5 were sharper than those at pH 3.0 | IgY and IgY‐Fc proteins were absorbed onto both columns | –
{Biotin-PEG4′}-GVKCTWSSIVDWVCVDM-NH2 (disulfide 4-14 (inferred)) [Y4‐4 synthetic peptide (biotinylated IgY‐binding peptide)] | – | – | – | – | – | 7.3 µM
{Biotin-PEG4′}-RSVCVWTAVTGWDCRND-NH2 (disulfide 4-14 (inferred)) [Y5‐55 synthetic peptide (biotinylated IgY‐binding peptide)] | – | – | – | – | – | 4.4 µM
